Read-outs that look alike come from different tables or passages of the source.
Tests used:
chimpanzee EP4 receptor [1] = target: T1, chimpanzee EP4 receptor (Pan troglodytes, UniProt Q95KZ0); assay: Competition binding of 3H-PGE2 on CHO-K1 cells transiently transfected with chimpanzee EP4
Procedure: Competitive binding of various prostanoid ligands for EP1-EP4 with ^3H-PGE2 on CHO cells transiently transfected with chimpanzee EP4. Each indicated concentration of (▪) PGE2, (●) sulprostone, (▴) butaprost, or (♦) EP4SL was incubated with three wells of a 24-well dish of CHO cells transiently transfected with chimpanzee EP4 for 1 hr on ice in the presence of 3 nM 3H-PGE2. Following washing and solubilization of the cells, specific binding was determined by scintillation counting. Error bars represent one standard deviation.
The day prior to transfection, CHO-K1 cells were plated in 100 mm dishes (Corning, Corning, N.Y.) at 6×10^4 cells/cm^2 in DMEM/F12 (Life Technologies) supplemented with 10% fetal calf serum (FCS; Gemini Bio-Products, Calabasas, Calif.). The next day, each plate of cells was transfected with 15 g chimpanzee EP4-pCR3.1-Uni plasmid DNA using Lipofectamine 2000 reagent (Life Technologies) according to the manufacturer's protocol. Briefly, 451 of Lipofectamine 2000 reagent was diluted into 1.5 ml of D-MEM/F12 without serum and incubated at room temperature for 5 minutes. During this time, 15g chimpanzee EP4-pCR3.1-Uni plasmid DNA was diluted into 0.5 ml of D-MEM/F12 without serum. The diluted Lipofectamine 2000 reagent and the DNA were then mixed and incubated an additional 20 minutes at room temperature. 8 ml D-MEM/F12 without serum was then added to each reaction and carefully added to a plate of CHO cell previously rinsed with serum free D-M EM/F12. These cells were then incubated at 37° C. with 5% CO2 for 6 hr at which time 1 ml FCS was added per plate and the incubation continued at 37° C. with 5% CO2 overnight. The following day, the cells were split to either 24-well or 96-well dishes for use in ligand binding and/or secondary signaling analyses.
Whole cell binding reactions (0.2 ml per well) containing 3 nM ^3H-PGE2 plus unlabeled competitor (10^−5 to 10^−10 M) were performed on ice for 1 hr. Unbound radioligand was removed by extensive washing, the cells were solubilized with 1% SDS, and the bound ^3H-PGE2 quantitated by scintillation counting.

chimpanzee EP4 receptor [2] = target: T1, chimpanzee EP4 receptor; assay: cAMP accumulation (SPA) in CHO cells transiently transfected with chimpanzee EP4; assay type: cell-based; settings: 12 minutes treatment, IBMX present, SPA kit
Procedure: Error bars represent one standard deviation.
Secondary signaling in CHO cells expressing chimpanzee EP4 was measured by cAMP accumulation. CHO cells transiently transfected with chimpanzee EP4 were treated for 12 minutes with various concentrations of PGE2 in the presence of 2 mM IBMX. Accumulation of intracellular cAMP was measured at the end of the treatment period by use of a commercially available scintillation proximity assay (SPA) kit (Amersham, Arlington Heights, Ill.).
(§1) Cells were then rinsed once with PBS and the appropriate concentrations of test compounds (diluted in assay buffer: 5 mM MgCl2; 30 mM Hepes pH 7.4; 0.3 mM 3-isobutyl-1-methylxanthine, (IBMX; Calbiochem, La Jolla, Calif.); 1 mg/ml dextrose) were added. The plate was incubated at 37° C. for 12 minutes, after which 10 μl lysis buffer was added to each well to terminate the reaction. SPA reagent (RPA559, Amersham, Piscataway, N.J.) was prepared according to the manufacturer's protocol and 120 μl was added to each well. Assay plates were then counted in a Wallac Trilux counter (Perkin Elmer, Boston, Mass.).

parental CHO-K1 cells = assay: cAMP levels in parental (untransfected) CHO-K1 cells; assay type: cell-based, Chinese hamster; settings: parental CHO-K1 cells (not transfected)
Procedure: The protein-coding region of chimpanzee EP4 was contained in open reading frame of 1470 bp and encodes a protein of 490 amino acids with a predicted molecular weight of 53.4 kD.
as §1

T1 sequence (Q95KZ0 whole entry): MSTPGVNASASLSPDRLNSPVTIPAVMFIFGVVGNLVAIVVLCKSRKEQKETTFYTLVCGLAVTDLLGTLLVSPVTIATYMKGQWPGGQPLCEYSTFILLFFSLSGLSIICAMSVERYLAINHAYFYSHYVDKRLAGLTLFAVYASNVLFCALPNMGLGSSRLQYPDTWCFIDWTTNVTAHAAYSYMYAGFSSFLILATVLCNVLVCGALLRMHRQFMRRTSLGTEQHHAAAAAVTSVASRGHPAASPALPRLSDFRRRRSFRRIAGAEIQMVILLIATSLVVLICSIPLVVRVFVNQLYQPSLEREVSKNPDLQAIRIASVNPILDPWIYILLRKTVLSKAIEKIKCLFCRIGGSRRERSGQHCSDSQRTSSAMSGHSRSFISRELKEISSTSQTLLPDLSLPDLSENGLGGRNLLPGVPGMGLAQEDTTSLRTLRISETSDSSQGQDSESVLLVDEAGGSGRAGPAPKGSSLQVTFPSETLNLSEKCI

Row | IC50 (chimpanzee EP4 receptor [1]) [nM] | binding to the chimpanzee EP4 receptor (competition with 3H-PGE2) (chimpanzee EP4 receptor [1]; CHO-K1 cells transiently transfected with chimpanzee EP4, competitor 10^-5 to 10^-10 M) | SMILES | EC50 (chimpanzee EP4 receptor [2]) [nM] | increased levels of cAMP (parental CHO-K1 cells) | IC50 (chimpanzee EP4 receptor [1]; read-out: IC50 for displacement of 3H-PGE2 binding, whole CHO-K1 cells transiently transfected with chimpanzee EP4, 3 nM 3H-PGE2, 1 hr on ice) [nM]
1 | 300 | – | O=C(O)CCCCCCN1C(=O)CCC1CCC(O)Cc1ccccc1 (stereo not shown) [EP4SL, 7-[2-(3-hydroxy-4-phenyl-butyl)-5-oxo-pyrrolidin-1-yl]-heptanoic acid] | 560 | not in parental CHO-K1 cells | –
2 | – | – | CCCCC[C@H](O)/C=C/[C@H]1[C@H](O)CC(=O)[C@@H]1C/C=C\CCCC(=O)O [PGE2, Prostaglandin E2] | 8.9 | not in parental CHO-K1 cells | 2.5
3 | – | did not bind | CCCC1([C@H](O)C/C=C/[C@H]2[C@H](O)CC(=O)[C@@H]2CCCCCCC(=O)OC)CCC1 [butaprost] | – | – | –
